The values that follow come from patent US20120058997A1, “IMIDAZO[1,2-B]PYRIDAZINE AND PYRAZOLO[1,5-A]PYRIMIDINE DERIVATIVES AND THEIR USE AS PROTEIN KINASE INHIBITORS” (SuperGen, Inc., priority 2006, published 2012).

The target in one assay is Pim-1 kinase (Homo sapiens, UniProt P11309). Kind of assay: Promega Kinase-Glo Pim-1 kinase inhibition assay.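 Note: in vitro Pim-1 reaction run 2 h at 30 °C, then leftover ATP measured by luciferase luminescence, where signal falls as kinase activity rises.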 The class given is biochemical. As to conditions: Table VIII (results); values in nM; read-out: IC50(Kinase). On the technique in general: Kinase-Glo reads ATP consumption through a luciferase reaction.
Sequence of Pim-1 kinase (P11309 whole entry): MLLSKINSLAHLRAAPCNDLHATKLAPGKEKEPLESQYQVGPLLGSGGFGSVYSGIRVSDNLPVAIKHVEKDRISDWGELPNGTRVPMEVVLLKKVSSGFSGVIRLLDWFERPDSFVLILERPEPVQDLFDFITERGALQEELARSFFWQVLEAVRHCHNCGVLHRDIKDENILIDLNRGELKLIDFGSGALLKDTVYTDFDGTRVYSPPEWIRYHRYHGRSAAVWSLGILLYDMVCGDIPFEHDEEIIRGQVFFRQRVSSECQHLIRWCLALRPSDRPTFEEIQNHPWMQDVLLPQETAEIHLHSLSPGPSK
By IC50 is commonly meant the concentration at which inhibition is half-maximal. For the molecule `CC(C)N1CCC(CNc2ccc3ncc(-c4cc(OC(F)(F)F)ccc4O)n3n2)CC1` [Compound 7-49, N-((1-isopropylpiperidin-4-yl)methyl)-3-(2-hydroxy-5-(trifluoromethoxy)phenyl)-imidazo[1,2-b]pyridazin-6-amine], the IC50 turned out to be 310 nM.

Still in this assay, the particulars now being: Table X; Kinase-Glo; read-out: IC50 on Pim1.
`CC(C)(O)CCNc1ccc2ncc(-c3cccc(OC(F)(F)F)c3)n2n1` [Compound 8-3, 2-Methyl-4-((3-(3-(trifluoromethoxy)phenyl)imidazo[1,2-b]pyridazin-6-yl)amino)butan-2-ol]: the IC50 lay within 10 to 100 nM.
As to `O[C@H]1CC[C@H](Oc2ccc3ncc(-c4cccc(OC(F)(F)F)c4)n3n2)CC1` [Compound 8-4, 4-((3-(3-(Trifluoromethoxy)phenyl)imidazo[1,2-b]pyridazin-6-yl)oxy)-trans-cyclohexanol], the IC50 is under 10 nM.
Still for that read-out and setting: then `O[C@@H]1CC[C@@H](Nc2ccc3ncc(-c4cccc(OC(F)(F)F)c4)n3n2)C1` [Compound 8-5, (1R,3R)3-((3-(3-(Trifluoromethoxy)phenyl)imidazo[1,2-b]pyridazin-6-yl)amino)cyclopentanol], with 10 to 100 nM.
On the same count and under the same terms, then `CC(C)(O)CNc1ccc2ncc(-c3cccc(OC(F)(F)F)c3)n2n1` [Compound 8-6, 2-Methyl-1-((3-(3-(trifluoromethoxy)phenyl)imidazo[1,2-b]pyridazin-6-yl)amino)propan-2-ol], with 10 to 100 nM; and `O[C@H]1C[C@H](CNc2ccc3ncc(-c4cccc(OC(F)(F)F)c4)n3n2)C1` [Compound 8-7, 3-(((3-(3-(Trifluoromethoxy)phenyl)imidazo[1,2-b]pyridazin-6-yl)amino)methyl)-trans-cyclobutanol], with 10 to 100 nM; and `N[C@H]1CC[C@H](Nc2ccc3ncc(-c4cccc(OC(F)(F)F)c4)n3n2)CC1` [Compound 8-8, (3-(3-(Trifluoromethoxy)phenyl)imidazo[1,2-b]pyridazin-6-yl)cyclohexane-trans-1,4-diamine], with under 10 nM.
Same read-out and setting: under `C[C@]1(O)CC[C@H](Nc2ccc3ncc(-c4cccc(OC(F)(F)F)c4)n3n2)CC1` [Compound 8-9, 1-Methyl-4-((3-(3-(trifluoromethoxy)phenyl)imidazo[1,2-b]pyridazin-6-yl)amino)-trans-cyclohexanol] stands 10 to 100 nM; under `CC(C)(O)[C@H]1CC[C@H](Nc2ccc3ncc(-c4cccc(OC(F)(F)F)c4)n3n2)CC1` [Compound 8-10], under 10 nM; under `O=S1(=O)CCC(CNc2ccc3ncc(-c4cccc(OC(F)(F)F)c4)n3n2)CC1` [Compound 8-13, 4-(((3-(3-(Trifluoromethoxy)phenyl)imidazo[1,2-b]pyridazin-6-yl)amino)methyl)tetrahydro-2H-thiopyran 1,1-dioxide], 100 to 1000 nM.
As to `O=S1(=O)CCC(Nc2ccc3ncc(-c4cccc(OC(F)(F)F)c4)n3n2)CC1` [Compound 8-14, 4-((3-(3-(Trifluoromethoxy)phenyl)imidazo[1,2-b]pyridazin-6-yl)amino)tetrahydro-2H-thiopyran 1,1-dioxide], the IC50 fell in the range of 1000 to 5000 nM.
Still for that read-out and setting: then `O=S1(=O)CCN(c2ccc3ncc(-c4cccc(OC(F)(F)F)c4)n3n2)CC1` [Compound 8-15, 4-(3-(3-(Trifluoromethoxy)phenyl)imidazo[1,2-b]pyridazin-6-yl)thiomorpholine 1,1-dioxide], with 1000 to 5000 nM; and `CC(C)O[C@H]1CC[C@H](Nc2ccc3ncc(-c4cccc(OC(F)(F)F)c4)n3n2)CC1` [Compound 8-16, 4-(trans-Isopropoxycyclohexyl)-3-(3-(trifluoromethoxy)phenyl)imidazo[1,2-b]pyridazin-6-amine], with 100 to 1000 nM; and `FC1(F)CCC(CNc2ccc3ncc(-c4cccc(OC(F)(F)F)c4)n3n2)CC1` [Compound 8-17, N-((4,4-difluorocyclohexyl)methyl)-3-(3-(trifluoromethoxy)phenyl)imidazo[1,2-b]pyridazin-6-amine], with 1000 to 5000 nM.
The same measure, in the same setting: then `FC(F)(F)Oc1cccc(-c2cnc3ccc(NCC4CCSCC4)nn23)c1` [Compound 8-18, N-((tetrahydro-2H-thiopyran-4-yl)methyl)-3-(3-(trifluoromethoxy)phenyl)imidazo[1,2-b]pyridazin-6-amine], with 1000 to 5000 nM; and `FC(F)(F)Oc1cccc(-c2cnc3ccc(NCC4CCOCC4)nn23)c1` [Compound 8-19, N-((tetrahydro-2H-pyran-4-yl)methyl)-3-(3-(trifluoromethoxy)phenyl)imidazo[1,2-b]pyridazin-6-amine], with 10 to 100 nM.
Regarding `CC(C)(O)C(=O)N1CCC(CNc2ccc3ncc(-c4cccc(OC(F)(F)F)c4)n3n2)CC1` [Compound 8-20, 2-Hydroxy-2-methyl-1-(4-(((3-(3-(trifluoromethoxy)phenyl)imidazo[1,2-b]pyridazin-6-yl)amino)methyl)piperidin-1-yl)propan-1-one], the IC50 lay in the range of 10 to 100 nM.
Same read-out and setting: under `O=C(CN1CCOCC1)N1CCC(CNc2ccc3ncc(-c4cccc(OC(F)(F)F)c4)n3n2)CC1` [Compound 8-21, 2-Morpholino-1-(4-(((3-(3-(trifluoromethoxy)phenyl)imidazo[1,2-b]pyridazin-6-yl)amino)methyl)piperidin-1-yl)ethanone] stands 10 to 100 nM.
On the same count and under the same terms, under `O=C1CC(CNc2ccc3ncc(-c4cccc(OC(F)(F)F)c4)n3n2)CCN1` (centres unmarked) [Compound 8-23, 4-(((3-(3-(Trifluoromethoxy)phenyl)imidazo[1,2-b]pyridazin-6-yl)amino)methyl)piperidin-2-one] stands 1000 to 5000 nM.
As to `NCC1CCN(c2ccc3ncc(-c4cccc(OC(F)(F)F)c4)n3n2)C(=O)C1` (centres unmarked) [Compound 8-24, 4-(Aminomethyl)-1-(3-(3-(trifluoromethoxy)phenyl)imidazo[1,2-b]pyridazin-6-yl)piperidin-2-one], the IC50 is 10 to 100 nM.
Still for that read-out and setting: then `N[C@H]1CCCN(c2ccc3ncc(-c4cccc(OC(F)(F)F)c4)n3n2)C1` [Compound 8-25, (S)-1-(3-(3-(Trifluoromethoxy)phenyl)imidazo[1,2-b]pyridazin-6-yl)piperidin-3-amine], with 10 to 100 nM.
The same measure, in the same setting: then `OCCN1CCC(CNc2ccc3ncc(-c4cccc(OC(F)(F)F)c4)n3n2)CC1` [Compound 8-27, 2-(4-(((3-(3-(Trifluoromethoxy)phenyl)imidazo[1,2-b]pyridazin-6-yl)amino)methyl)piperidin-1-yl)ethanol], with 10 to 100 nM; and `C[C@]1(O)CC[C@H](Nc2ccc3ncc(-c4cccc(C(F)(F)F)c4)n3n2)CC1` [Compound 8-30, 1-Methyl-4-((3-(3-(trifluoromethyl)phenyl)imidazo[1,2-b]pyridazin-6-yl)amino)-trans-cyclohexanol], with 10 to 100 nM; and `CC(C)(O)[C@H]1CC[C@H](Nc2ccc3ncc(-c4cccc(C(F)(F)F)c4)n3n2)CC1` [Compound 8-31], with under 10 nM.
Regarding `CO[C@H]1CC[C@H](Nc2ccc3ncc(-c4cccc(C(F)(F)F)c4)n3n2)CC1` [Compound 8-32, 4-(trans-Methoxycyclohexyl)-3-(3-(trifluoromethyl)phenyl)imidazo[1,2-b]pyridazin-6-amine], the IC50 is 100 to 1000 nM.
The same measure, in the same setting: under `FC(F)(F)c1cccc(-c2cnc3ccc(NC4CCOCC4)nn23)c1` [Compound 8-33, N-(Tetrahydro-2H-pyran-4-yl)-3-(3-(trifluoromethyl)phenyl)imidazo[1,2-b]pyridazin-6-amine] stands 10 to 100 nM; under `O=S1(=O)CCC(CNc2ccc3ncc(-c4cccc(C(F)(F)F)c4)n3n2)CC1` [Compound 8-34, 4-(((3-(3-(Trifluoromethyl)phenyl)imidazo[1,2-b]pyridazin-6-yl)amino)methyl)tetrahydro-2H-thiopyran 1,1-dioxide], 100 to 1000 nM.
The same measure, in the same setting: then `C[C@]1(O)CC[C@H](Nc2ccc3ncc(-c4cccc(Cl)c4)n3n2)CC1` [Compound 8-36, 4-((3-(3-Chlorophenyl)imidazo[1,2-b]pyridazin-6-yl)amino)-1-methyl-trans-cyclohexanol], with 100 to 1000 nM.
`CC(C)(O)[C@H]1CC[C@H](Nc2ccc3ncc(-c4cccc(Cl)c4)n3n2)CC1` [Compound 8-37]: the IC50 is under 10 nM.
For the molecule `CO[C@H]1CC[C@H](Nc2ccc3ncc(-c4cccc(Cl)c4)n3n2)CC1` [Compound 8-38, 3-(3-Chlorophenyl)-N-(4-trans-methoxycyclohexyl)imidazo[1,2-b]pyridazin-6-amine], the IC50 fell in the range of 10 to 100 nM.
As for `Clc1cccc(-c2cnc3ccc(NC4CCOCC4)nn23)c1` [Compound 8-39], the IC50 was under 10 nM.
Take `O=S1(=O)CCC(CNc2ccc3ncc(-c4cccc(Cl)c4)n3n2)CC1` [Compound 8-40, 4-(((3-(3-Chlorophenyl)imidazo[1,2-b]pyridazin-6-yl)amino)methyl)tetrahydro-2H-thiopyran 1,1-dioxide]: the IC50 was 100 to 1000 nM.
Still for that read-out and setting: then `CC(C)(O)CCOc1ccc2ncc(-c3cccc(OC(F)(F)F)c3)n2n1` [Compound 8-41, 2-Methyl-4-((3-(3-(Trifluoromethoxy)phenyl)imidazo[1,2-b]pyridazin-6-yl)oxy)butan-2-ol], with 100 to 1000 nM.
For `COCCOc1ccc2ncc(-c3cccc(OC(F)(F)F)c3)n2n1` [Compound 8-42, 6-(2-Methoxyethoxy)-3-(3-(trifluoromethoxy)phenyl)imidazo[1,2-b]pyridazine], the IC50 lay in the range of 1000 to 5000 nM.
Turning to `COc1ccc(CNc2ccc3ncc(-c4cccc(OC(F)(F)F)c4)n3n2)cc1` [Compound 8-43, N-(4-Methoxybenzyl)-3-(3-(trifluoromethoxy)phenyl)imidazo[1,2-b]pyridazin-6-amine], the IC50 lay in the range of 100 to 1000 nM.
Same read-out and setting: then `FC(F)(F)Oc1cccc(-c2cnc3ccc(NCCN4CCOCC4)nn23)c1` [Compound 8-44, N-(2-morpholinoethyl)-3-(3-(trifluoromethoxy)phenyl)imidazo[1,2-b]pyridazin-6-amine], with 10 to 100 nM; and `CN(C)CC(=O)N1CCC(CNc2ccc3ncc(-c4cccc(OC(F)(F)F)c4)n3n2)CC1` [Compound 8-45, 2-(dimethylamino)-1-(4-(((3-(3-(trifluoromethoxy)phenyl)imidazo[1,2-b]pyridazin-6-yl)amino)methyl)piperidin-1-yl)ethanone], with 10 to 100 nM; and `CC(C)(O)[C@H]1CC[C@H](Nc2ccn3ncc(-c4cccc(OC(F)(F)F)c4)c3n2)CC1` [Compound 8-47], with 100 to 1000 nM.
